Source: patent publication US20070082061A1, “REDUCTION OF SALTINESS WITH SWEETENERS” (priority 2005, published 2007)
Several values for one entry are separate records, joined by “and”; a condition that tells them apart may be missing. Equal values may be shown once. Read-outs that look alike come from different tables or passages of the source. One block for each molecule: values may come before it. Where a SMILES comes first, the peptide text is derived from it.

Key:
[1] = Sweetener preference in diluted phosphate salt bowel cleanser, forty test subjects (Example 5); format: in vivo, human; details: scale 1 to 4, 60 mL phosphate salt bowel cleanser in 355 mL water
Experimental: Each solution was prepared by diluting 60 mL of the phosphate salt bowel cleanser from Example 2 in 355 mL of water and using either 0.05% Ace-K, 0.05% Sucralose, 0.08% saccharin, 0.05% of a 5:1 Ace-K/Sucralose blend, or 15% sucrose as the sweetener.

[2] = considered to be; cited from earlier work
[3] = Sweetener concentration preference in diluted phosphate salt bowel cleanser, about 35 testers (Example 10); format: in vivo, human; details: for preferred sweetener concentration to decrease saltiness: in the phosphate salt bowel cleanser; for Average rating: scale 1 to 4, 4 highly preferred
Experimental: To confirm the correlation of FIG. 1 in a bowel cleanser with multiple sweeteners, approximately 35 testers were asked to select the most palatable solution from five possibilities. Each of the five solutions included 60 mL of the phosphate salt bowel cleanser from Example 2 in 355 mL of water. This solution has an equivalent saltiness to the 2% NaCI/water solution of Example 9. The first of the five solutions lacked any sweetener, while an increasing concentration of sweetener was added to the remaining four. Tests were performed using Sucralose, the 5:1 Ace-K/Sucralose blend, Ace-K, or Saccharin as the sweetener.
Tables 8, 9, 10, and 11, below, present the average test data for each sweetener, respectively.
The sweetener concentration for each data point corresponds to those in Tables 8 through 11, above, with higher values on the X-axis corresponding to higher sweetener concentrations.

[4] = Stability of sweeteners in FLEET PHOSPHO-SODA (Example 1)
Experimental: While it is possible to add the sweetener and/or flavoring a short time before consumption of a phosphate salt bowel cleanser and retain at least a portion of the palatability benefits, one goal of the present bowel cleansing compositions is to provide stable liquids having increased palatability. Thus, numerous sweeteners and flavorings were tested for stability in phosphate salt bowel cleanser.
Sucrose, Saccharin, Sucralose, Aspartame, Ace-K, Thaumatin (Talin), Neohesperidine Dihydrochalcone (NHDC), and Trehalose were tested for stability in FLEET® PHOSPHO-SODA®.

[5] = Taste tests to determine equivalent sweetness of sweeteners in a salty liquid (Example 4); format: in vivo, human
Experimental: Before a preferred sweetener for use in salty liquids could be determined, the amount of each sweetener required to provide an equivalent sweetness was determined. Multiple taste tests were performed comparing various concentrations of Sucralose, Ace-K, the 5:1 Ace-K/Sucralose blend, Saccharin, and sucrose in a salty liquid to determine an equivalent […].

[6] = Preferred Sucralose concentration in water, 0.4% NaCl and 2% NaCl, approximately 40 testers (Example 9); format: in vivo, human; details: for Preferred Sucralose Concentration (wt %): correlation line of FIG. 1
Excerpt: To determine the preferred concentration of Sucralose to reduce the saltiness of bowel cleansers having different perceived saltiness, varying concentrations of Sucralose were tasted in water, a 0.4% NaCI water solution, and a 2% NaCI water solution. For each solution, approximately 40 testers were asked to rate four different concentrations of Sucralose. Tables 4, 5, and 6, below, present the average test data for the water, 0.4% NaCI water solution, and 2% NaCI water solution, respectively.
FIG. 1 plots the increasing salinity of the solutions from Tables 4, 5, and 6 against the preferred concentration of Sucralose required to reduce the saltiness and increase the palatability of each solution. The graph establishes that as saltiness increases, the amount of sweetener that should be added to improve palatability linearly increases (R^2=0.997). The X-axis NaCI and the Y-axis Sucralose concentrations represented by the correlation line from FIG. 1 are presented below in Table 7.

[7] = Preference comparison of sweetened and unsweetened NaCl solutions and phosphate salt bowel cleansers (Example 8); format: in vivo, human
Excerpt: To establish the reliability of the NaCI to bowel cleanser comparison, test subjects were asked to taste sweetened and unsweetened NaCI solutions and sweetened and unsweetened phosphate salt bowel cleansers. In this comparison of the sweetened and unsweetened NaCI solutions, out of 19 test subjects, 17 preferred the 2% NaCI solution that included 0.13% Sucralose. Furthermore, in the preference comparison of the sweetened and unsweetened phosphate salt bowel cleanser, 18 out of 20 test subjects preferred the phosphate salt bowel cleanser including 0.13% Sucralose. Therefore, the palatability increase provided by the Sucralose was similarly observed for the 2% NaCI/water solution and the phosphate salt bowel cleanser.

[8] = Mean acceptability ratings (Likert) of sweetener systems in phosphate salt bowel cleanser, 19 test subjects (Example 6); format: in vivo, human; details: at the same 0.38% concentration; systems with Ace-K
Experimental: A comparison between Saccharin/Ace-K and Sucralose/Ace-K was performed to determine which of these two sweetener systems most improved the palatability of a salty bowel cleanser. Table 3, below, provides the mean acceptability ratings for 19 test subjects who tasted 5:1 Saccharin/Ace-K and 5:1 Sucralose/Ace-K sweetener systems in 60 mL of the phosphate salt bowel cleanser from Example 2 in 355 mL of water.

[9] = Preferred Sucralose concentration in PEG based bowel cleanser NuLytely, thirty test subjects (Example 11); format: in vivo, human; details: for rating of individual test subject / rating, Average: scale 1 to 5, 5 highly preferred, PEG based bowel cleanser
Excerpt: To determine the preferred concentration of Sucralose to reduce the saltiness of a PEG based bowel cleanser, test subjects were asked to taste unsweetened and three sweetened solutions of NuLytely®. NuLytely® is an aqueous liquid including approximately 420 g of 3350 PEG, 5.72 g of sodium bicarbonate, 11.2 g of NaCI, and 1.48 g of KCI. It has a similar perceived saltiness to the similar GoLytely®, which is an aqueous liquid including approximately 236 g of 3350 PEG, 22.74 g of sodium sulfate, 6.74 g of sodium bicarbonate, 5.86 g of NaCI, and 2.97 g of KCI. Either solution has a saltiness that approximates the 0.4% NaCl/water solution of Example 9.
Each of thirty test subjects was asked to rate the four solutions on a scale of 1 to 5 with 5 being highly preferred and 1 being least preferred. The first solution included no sweetener. The second, third, and fourth solutions included 0.01%, 0.025%, or 0.05% (w/w) of Sucralose, respectively.

stability in FLEET PHOSPHO-SODA [4]: acceptable stability
Molecule: CC1=CC(=O)NS(=O)(=O)O1 [Ace-K, acesulfame potassium]
average preference value ([1]; 0.05% sweetener): 2.45 | sweetness relative to sucrose / sugar [2]: about 200 times | preferred sweetener concentration to decrease saltiness [3]: 0.05% | Average rating ([3]; Ace-K 0.025 % (w/w), phosphate salt bowel cleanser in water): 1.88 | Average rating ([3]; Ace-K 0.05 % (w/w), phosphate salt bowel cleanser in water): 2.63 | Average rating ([3]; Ace-K 0.1 % (w/w), phosphate salt bowel cleanser in water): 2.16 | Average rating ([3]; Ace-K 0.2 % (w/w), phosphate salt bowel cleanser in water): 2.16 | sweetener concentration providing an equivalent sweetness [5]: 0.05%

stability in FLEET PHOSPHO-SODA [4]: effectiveness diminished over time
Molecule: COC(=O)[C@H](Cc1ccccc1)NC(=O)[C@@H](N)CC(=O)O [Aspartame] (HELM PEPTIDE1{D.F.[CO[*:1]]}$$$$V2.0)

stability in FLEET PHOSPHO-SODA [4]: acceptable stability
Molecule: O=C1NS(=O)(=O)c2ccccc21 [Saccharin]
average preference value ([1]; 0.08% sweetener): 2.5 | sweetness relative to sucrose / sugar [2]: about 200 times | preferred sweetener concentration to decrease saltiness [3]: about 0.0832% | Average rating ([3]; Saccharin 0.0208 % (w/w), phosphate salt bowel cleanser in water): 2.29 | Average rating ([3]; Saccharin 0.0416 % (w/w), phosphate salt bowel cleanser in water): 2.47 | Average rating ([3]; Saccharin 0.0832 % (w/w), phosphate salt bowel cleanser in water): 2.47 | Average rating ([3]; Saccharin 0.1664 % (w/w), phosphate salt bowel cleanser in water): 1.97 | sweetener concentration providing an equivalent sweetness [5]: 0.083%

stability in FLEET PHOSPHO-SODA [4]: effectiveness diminished over time
Molecule: OC[C@H]1O[C@@](CO)(O[C@H]2O[C@H](CO)[C@@H](O)[C@H](O)[C@H]2O)[C@@H](O)[C@@H]1O [Sucrose, reference compound]
average preference value ([1]; 15% sweetener): 3.3 | sweetener concentration providing an equivalent sweetness [5]: 15%

stability in FLEET PHOSPHO-SODA [4]: effectiveness diminished over time
Molecule: OC[C@H]1O[C@H](O[C@H]2O[C@H](CO)[C@@H](O)[C@H](O)[C@H]2O)[C@H](O)[C@@H](O)[C@@H]1O [Trehalose]

More lines, now with the values behind:

Molecule: COc1ccc(CCC(=O)c2c(O)cc(O[C@@H]3O[C@H](CO)[C@@H](O)[C@H](O)[C@H]3O[C@@H]3O[C@@H](C)[C@H](O)[C@@H](O)[C@H]3O)cc2O)cc1O [Neohesperidine Dihydrochalcone (NHDC), Neohesperidine Dihydrochalcone]
stability in FLEET PHOSPHO-SODA ([4]; sweetener in phosphate salt laxative solution): effectiveness diminished over time

Molecule: OC[C@H]1O[C@H](O[C@]2(CCl)O[C@H](CCl)[C@@H](O)[C@@H]2O)[C@H](O)[C@@H](O)[C@H]1Cl [Sucralose]
average preference value ([1]; 0.05% sweetener): 3.2 | Preferred Sucralose Concentration (wt %) ([6]; NaCl Concentration 0.0 wt %): 0.011 wt % | Preferred Sucralose Concentration (wt %) ([6]; NaCl Concentration 0.2 wt %): 0.015 wt % | Preferred Sucralose Concentration (wt %) ([6]; NaCl Concentration 0.4 wt %): 0.019 wt % | Preferred Sucralose Concentration (wt %) ([6]; NaCl Concentration 0.6 wt %): 0.023 wt % | Preferred Sucralose Concentration (wt %) ([6]; NaCl Concentration 0.8 wt %): 0.027 wt % | Preferred Sucralose Concentration (wt %) ([6]; NaCl Concentration 1.0 wt %): 0.031 wt % | Preferred Sucralose Concentration (wt %) ([6]; NaCl Concentration 1.2 wt %): 0.035 wt % | Preferred Sucralose Concentration (wt %) ([6]; NaCl Concentration 1.4 wt %): 0.038 wt % | Preferred Sucralose Concentration (wt %) ([6]; NaCl Concentration 1.6 wt %): 0.042 wt % | Preferred Sucralose Concentration (wt %) ([6]; NaCl Concentration 1.8 wt %): 0.046 wt % | Preferred Sucralose Concentration (wt %) ([6]; NaCl Concentration 2.0 wt %): 0.050 wt % | Preferred Sucralose Concentration (wt %) ([6]; NaCl Concentration 2.2 wt %): 0.054 wt % | Preferred Sucralose Concentration (wt %) ([6]; NaCl Concentration 2.4 wt %): 0.058 wt % | Preferred Sucralose Concentration (wt %) ([6]; NaCl Concentration 2.6 wt %): 0.062 wt % | Preferred Sucralose Concentration (wt %) ([6]; NaCl Concentration 2.8 wt %): 0.066 wt % | Preferred Sucralose Concentration (wt %) ([6]; NaCl Concentration 3.0 wt %): 0.070 wt % | preferred level of Sucralose ([6]; in the 0.4% NaCl solution): 0.02% | preferred level of Sucralose ([6]; in the 2% NaCl solution): 0.05% | preferred level of Sucralose ([6]; in water alone): 0.005% | sweetness relative to sucrose / sugar [2]: about 600 times | number of test subjects preferring the sweetened solution ([7]; out of 19 test subjects, 2% NaCl solution with 0.13% Sucralose vs unsweetened): 17 | number of test subjects preferring the sweetened cleanser ([7]; out of 20 test subjects, phosphate salt bowel cleanser with 0.13% Sucralose vs unsweetened): 18 | preferred sweetener concentration to decrease saltiness [3]: 0.05% | Likert preferability comparison of sweeteners (FIG. 2) ([3]; phosphate salt bowel cleanser, scale 1 to 5, 5 most preferred, in words): most preferred | Average rating ([3]; Sucralose 0.0125 % (w/w), 60 mL phosphate salt bowel cleanser in 355 mL water): 2.56 | Average rating ([3]; Sucralose 0.025 % (w/w), 60 mL phosphate salt bowel cleanser in 355 mL water): 2.72 | Average rating ([3]; Sucralose 0.05 % (w/w), 60 mL phosphate salt bowel cleanser in 355 mL water): 3.22 | Average rating ([3]; Sucralose 0.1 % (w/w), 60 mL phosphate salt bowel cleanser in 355 mL water): 2.88 | preference for Sucralose over Saccharin [8]: up to 55% | stability in FLEET PHOSPHO-SODA [4]: acceptable stability | sweetener concentration providing an equivalent sweetness [5]: 0.05% | preference of sweetened PEG based bowel cleanser compared with the unsweetened PEG cleanser ([9]; Sucralose-sweetened NuLytely): approximately 37% | preferred Sucralose concentration ([9]; in the PEG based bowel cleanser): 0.025% | rating of individual test subject ([9]; 0.01 % Sucralose): 4 (7×) and 2 (13×) and 3 (10×) | rating, Average ([9]; 0.01 % Sucralose): 2.80 | rating of individual test subject ([9]; 0.025 % Sucralose): 4 (9×) and 2 (12×) and 3 (5×) and 1 (2×) and 5 (2×) | rating, Average ([9]; 0.025 % Sucralose): 2.90 | rating of individual test subject ([9]; 0.05 % Sucralose): 2 (11×) and 1 (8×) and 5 (2×) and 4 (7×) and 3 (2×) | rating, Average ([9]; 0.05 % Sucralose): 2.47

Molecule: Thaumatin [Thaumatin (Talin)]
stability in FLEET PHOSPHO-SODA [4]: effectiveness diminished over time
